Where a SMILES comes first, the peptide text is derived from it. Bridges are numbered along the chain shown (N, C = ends). [ ]: non-standard residue; d: D form. The star is where a group is joined. ξ: configuration not given here. Phe(4-COOH) = N[C@@H](Cc1ccc(C(=O)O)cc1)C(=O)O; Bip = N[C@@H](Cc1ccc(-c2ccccc2)cc1)C(=O)O; Phe(3-Me) = Cc1cccc(C[C@H](N)C(=O)O)c1; 3Pal = N[C@@H](Cc1cccnc1)C(=O)O; 4Pal = N[C@@H](Cc1ccncc1)C(=O)O; Cit = NC(=O)NCCC[C@H](N)C(=O)O; Carboxymethyl = O=C(O)C*; Orn = NCCC[C@H](N)C(=O)O; Dab = NCC[C@H](N)C(=O)O; Dap = NC[C@H](N)C(=O)O; ξA = CC(N)C(=O)O
Each compound was assayed against T1, human PD-1 / PD-L1-Ig binding on Jurkat cell line over-expressing human PD-1 (Jurkat-PD-1) (Homo sapiens, UniProt Q15116) (assay: Jurkat-PD-1 Cell Binding High-Content Screening Assay (CBA)). Conditions: Jurkat HPD1_PDL1 IC50, Jurkat-PD-1 cells, PE-labeled PD-L1-Ig 20 nM final.
T1 construct: expressed in transfected cells; host or cells: Jurkat
T1 sequence (Q15116 25-288): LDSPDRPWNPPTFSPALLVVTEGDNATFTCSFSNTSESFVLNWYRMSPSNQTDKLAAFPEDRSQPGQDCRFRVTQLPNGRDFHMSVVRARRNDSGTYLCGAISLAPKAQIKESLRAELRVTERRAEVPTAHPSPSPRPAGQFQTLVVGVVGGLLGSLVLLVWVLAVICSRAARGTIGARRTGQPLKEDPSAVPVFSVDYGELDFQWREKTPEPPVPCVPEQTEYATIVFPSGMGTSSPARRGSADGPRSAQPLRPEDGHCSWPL
Format: cell-based
In short: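 Binding of fluorescent PD-L1-Ig (phycoerythrin linked via the Ig tag, 20 nM final) to PD-1-overexpressing Jurkat cells was imaged after a 2 h, 37° C compound pretreatment and 1 hour ligand incubation.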

SMILES | IC50 [nM]
CC[C@H](C)[C@@H]1NC(=O)[C@H](Cc2ccc(-c3ccccc3)cc2)NC(=O)[C@H](C(C)C)NC(=O)[C@H](Cc2cccc(C)c2)NC(=O)[C@H](CC(=O)O)NC(=O)[C@H](Cc2ccc(OCC(=O)O)cc2)NC(=O)[C@H](Cc2cccnc2)NC(=O)CSC[C@@H](C(=O)N[C@@H](C)C(N)=O)NC(=O)[C@H]([C@@H](C)O)NC(=O)[C@H](C(C)C)NC(=O)[C@H](CC(C)C)NC(=O)[C@H](CCN)NC(=O)[C@@H](CC(C)C)NC(=O)[C@H](CCCN)NC1=O [Compound 1224] | 11.3

Same assay, conditions: Jurkat-PD-1 cells, PE-labeled PD-L1-Ig 20 nM final; read-out: Jurkat HPD1_PDL1 IC50

SMILES | IC50 [nM]
CC(C)C[C@@H]1NC(=O)[C@H](Cc2c[nH]c3ccccc23)NC(=O)[C@H](CC(=O)O)NC(=O)[C@H](Cc2ccc(O)cc2)NC(=O)[C@H](Cc2ccccc2)NC(=O)CSC[C@@H](C(=O)N[C@@H](C)C(N)=O)NC(=O)[C@H](CO)NC(=O)[C@H](C(C)C)NC(=O)[C@H](CC(C)C)NC(=O)[C@H](CC(N)=O)NC(=O)[C@@H](CC(C)C)NC(=O)[C@H](CN)NC(=O)[C@H](CCC(=O)O)NC(=O)[C@H](Cc2ccc(-c3ccccc3)cc2)NC1=O [Compound 1226] ({CH2CO}-FYDWL[Bip]E[Dap][dL]NLVSCA-NH2; thioether N-14) | 32.2
CC(C)C[C@@H]1NC(=O)[C@H](Cc2c[nH]c3ccccc23)NC(=O)[C@H](CC(=O)O)NC(=O)[C@H](Cc2ccc(O)cc2)NC(=O)[C@H](Cc2ccccc2)NC(=O)CSC[C@@H](C(=O)N[C@@H](C)C(N)=O)NC(=O)[C@H](CO)NC(=O)[C@H](C(C)C)NC(=O)[C@H](CC(C)C)NC(=O)[C@H](CCN)NC(=O)[C@@H](CC(C)C)NC(=O)[C@H](CCN)NC(=O)[C@H](CCCNC(N)=O)NC(=O)[C@H](Cc2ccc(-c3ccccc3)cc2)NC1=O [Compound 1228] ({CH2CO}-FYDWL[Bip][Cit][Dab][dL][Dab]LVSCA-NH2; thioether N-14) | 17.5
CC[C@H](C)[C@@H]1NC(=O)[C@H](Cc2ccc(-c3ccccc3)cc2)NC(=O)[C@H](CC(C)C)NC(=O)[C@H](Cc2c[nH]c3ccccc23)NC(=O)[C@H](CC(=O)O)NC(=O)[C@H](Cc2ccc(O)cc2)NC(=O)[C@H](Cc2ccccc2)NC(=O)CSC[C@@H](C(=O)NCC(N)=O)NC(=O)[C@H](CO)NC(=O)[C@H](C(C)C)NC(=O)[C@H](CC(C)C)NC(=O)[C@H](CCN)NC(=O)[C@@H](CC(C)C)NC(=O)[C@H](CCCN)NC1=O [Compound 1230] ({CH2CO}-FYDWL[Bip]I[Orn][dL][Dab]LVSCG-NH2; thioether N-14) | 18.1
CC(C)C[C@@H]1NC(=O)[C@H](Cc2c[nH]c3ccccc23)NC(=O)[C@H](CC(=O)O)NC(=O)[C@H](Cc2ccc(O)cc2)NC(=O)[C@H](Cc2ccccc2)NC(=O)CSC[C@@H](C(=O)N[C@@H](C)C(N)=O)NC(=O)[C@H](CO)NC(=O)[C@H](C(C)C)NC(=O)[C@H](CC(C)C)NC(=O)[C@H](CC(N)=O)NC(=O)[C@@H](CC(C)C)NC(=O)[C@H](CCCN)NC(=O)[C@H](CCCNC(N)=O)NC(=O)[C@H](Cc2ccc(-c3ccccc3)cc2)NC1=O [Compound 1234] ({CH2CO}-FYDWL[Bip][Cit][Orn][dL]NLVSCA-NH2; thioether N-14) | 36.6
CC(C)C[C@@H]1NC(=O)[C@H](Cc2c[nH]c3ccccc23)NC(=O)[C@H](CC(=O)O)NC(=O)[C@H](Cc2ccc(O)cc2)NC(=O)[C@H](Cc2ccccc2)NC(=O)CSC[C@@H](C(=O)N[C@@H](C)C(N)=O)NC(=O)[C@H](CO)NC(=O)[C@H](C(C)C)NC(=O)[C@H](CC(C)C)NC(=O)[C@H](CC(N)=O)NC(=O)[C@@H](CC(C)C)NC(=O)[C@H](CCCN)NC(=O)[C@H](CCC(=O)O)NC(=O)[C@H](Cc2ccc(-c3ccccc3)cc2)NC1=O [Compound 1235] ({CH2CO}-FYDWL[Bip]E[Orn][dL]NLVSCA-NH2; thioether N-14) | 21

Other lines, results leading:

IC50 [nM] | SMILES
17.4 | CC(C)C[C@@H]1NC(=O)[C@H](CCN)NC(=O)[C@@H](CC(C)C)NC(=O)[C@H](CCCN)NC(=O)[C@H](C(C)C)NC(=O)[C@H](Cc2ccc(-c3ccccc3)cc2)NC(=O)[C@H](C(C)C)NC(=O)[C@H](Cc2c[nH]c3ccccc23)NC(=O)[C@H](CC(=O)O)NC(=O)[C@H](Cc2ccncc2)NC(=O)[C@H](CN)NC(=O)CSC[C@@H](C(=O)NC(C)C(N)=O)NC(=O)[C@H]([C@@H](C)O)NC(=O)[C@H](C(C)C)NC1=O (stereo partly drawn) [Compound 1236] ({CH2CO}-[Dap][4Pal]DWV[Bip]V[Orn][dL][Dab]LVTC[ξA]-NH2; thioether N-14)
14.7 | Cc1cccc(C[C@@H]2NC(=O)[C@H](CC(=O)O)NC(=O)[C@H](Cc3ccncc3)NC(=O)[C@H](Cc3ccc(OCC(=O)O)cc3)NC(=O)CSC[C@@H](C(=O)N[C@@H](C)C(N)=O)NC(=O)[C@H]([C@@H](C)O)NC(=O)[C@H](C(C)C)NC(=O)[C@H](CC(C)C)NC(=O)[C@H](CCN)NC(=O)[C@@H](CC(C)C)NC(=O)[C@H](CCCN)NC(=O)[C@H](C(C)C)NC(=O)[C@H](Cc3ccc(-c4ccccc4)cc3)NC(=O)[C@H](C(C)C)NC2=O)c1 [Compound 1222] ({CH2CO}-Y(Carboxymethyl)[4Pal]D[Phe(3-Me)]V[Bip]V[Orn][dL][Dab]LVTCA-NH2; thioether N-14)
14.5 | CC(C)C[C@@H]1NC(=O)[C@H](Cc2c[nH]c3ccccc23)NC(=O)[C@H](CC(=O)O)NC(=O)[C@H](Cc2ccc(O)cc2)NC(=O)[C@H](Cc2ccccc2)NC(=O)CSC[C@@H](C(=O)N[C@@H](C)C(N)=O)NC(=O)[C@H](CO)NC(=O)[C@H](C(C)C)NC(=O)[C@H](CC(C)C)NC(=O)[C@H](CCN)NC(=O)[C@@H](CC(C)C)NC(=O)[C@H](CCN)NC(=O)[C@H](CCC(=O)O)NC(=O)[C@H](Cc2ccc(-c3ccccc3)cc2)NC1=O [Compound 1229] ({CH2CO}-FYDWL[Bip]E[Dab][dL][Dab]LVSCA-NH2; thioether N-14)
6.2 | Cc1cccc(C[C@@H]2NC(=O)[C@H](CC(=O)O)NC(=O)[C@H](Cc3ccc(OCC(=O)O)cc3)NC(=O)[C@H](Cc3cccnc3)NC(=O)CSC[C@@H](C(=O)N[C@@H](C)C(N)=O)NC(=O)[C@H]([C@@H](C)O)NC(=O)[C@H](C(C)C)NC(=O)[C@H](CC(C)C)NC(=O)[C@H](CCN)NC(=O)[C@@H](CC(C)C)NC(=O)[C@H](CCCN)NC(=O)[C@H](CCCNC(N)=O)NC(=O)[C@H](Cc3ccc(-c4ccccc4)cc3)NC(=O)[C@H](C(C)C)NC2=O)c1 [Compound 1225] ({CH2CO}-[3Pal]Y(Carboxymethyl)D[Phe(3-Me)]V[Bip][Cit][Orn][dL][Dab]LVTCA-NH2; thioether N-14)
6.1 | Cc1cccc(C[C@@H]2NC(=O)[C@H](CC(=O)O)NC(=O)[C@H](Cc3ccncc3)NC(=O)[C@H](CN)NC(=O)CSC[C@@H](C(=O)N[C@@H](C)C(N)=O)NC(=O)[C@H]([C@@H](C)O)NC(=O)[C@H](C(C)C)NC(=O)[C@H](CC(C)C)NC(=O)[C@H](CCN)NC(=O)[C@@H](CC(C)C)NC(=O)[C@H](CCCN)NC(=O)[C@H](C(C)C)NC(=O)[C@H](Cc3ccc(-c4ccccc4)cc3)NC(=O)[C@H](C(C)C)NC2=O)c1 [Compound 1223] ({CH2CO}-[Dap][4Pal]D[Phe(3-Me)]V[Bip]V[Orn][dL][Dab]LVTCA-NH2; thioether N-14)
5.6 | Cc1cccc(C[C@@H]2NC(=O)[C@H](CC(=O)O)NC(=O)[C@H](Cc3ccc(OCC(=O)O)cc3)NC(=O)[C@H](Cc3cccnc3)NC(=O)CSC[C@@H](C(=O)N[C@@H](C)C(N)=O)NC(=O)[C@H]([C@@H](C)O)NC(=O)[C@H](C(C)C)NC(=O)[C@H](CC(C)C)NC(=O)[C@H](CCN)NC(=O)[C@@H](CC(C)C)NC(=O)[C@H](CCCN)NC(=O)[C@H](C(C)C)NC(=O)[C@H](Cc3ccc(-c4ccccc4)cc3)NC(=O)[C@H](C(C)C)NC2=O)c1 [Compound 1218] ({CH2CO}-[3Pal]Y(Carboxymethyl)D[Phe(3-Me)]V[Bip]V[Orn][dL][Dab]LVTCA-NH2; thioether N-14)
5.4 | Cc1cccc(C[C@@H]2NC(=O)[C@H](CC(=O)O)NC(=O)[C@H](Cc3ccc(C(=O)O)cc3)NC(=O)[C@H](CN)NC(=O)CSC[C@@H](C(=O)N[C@@H](C)C(N)=O)NC(=O)[C@H]([C@@H](C)O)NC(=O)[C@H](C(C)C)NC(=O)[C@H](CC(C)C)NC(=O)[C@H](CCN)NC(=O)[C@@H](CC(C)C)NC(=O)[C@H](CCCN)NC(=O)[C@H](C(C)C)NC(=O)[C@H](Cc3ccc(-c4ccccc4)cc3)NC(=O)[C@H](C(C)C)NC2=O)c1 [Compound 1219] ({CH2CO}-[Dap][Phe(4-COOH)]D[Phe(3-Me)]V[Bip]V[Orn][dL][Dab]LVTCA-NH2; thioether N-14)
5.1 | Cc1cccc(C[C@@H]2NC(=O)[C@H](CC(=O)O)NC(=O)[C@H](Cc3ccc(OCC(=O)O)cc3)NC(=O)[C@H](Cc3ccc(OCC(=O)O)cc3)NC(=O)CSC[C@@H](C(=O)N[C@@H](C)C(N)=O)NC(=O)[C@H]([C@@H](C)O)NC(=O)[C@H](C(C)C)NC(=O)[C@H](CC(C)C)NC(=O)[C@H](CCN)NC(=O)[C@@H](CC(C)C)NC(=O)[C@H](CCCN)NC(=O)[C@H](C(C)C)NC(=O)[C@H](Cc3ccc(-c4ccccc4)cc3)NC(=O)[C@H](C(C)C)NC2=O)c1 [Compound 1220] ({CH2CO}-Y(Carboxymethyl)Y(Carboxymethyl)D[Phe(3-Me)]V[Bip]V[Orn][dL][Dab]LVTCA-NH2; thioether N-14)
3 | Cc1cccc(C[C@@H]2NC(=O)[C@H](CC(=O)O)NC(=O)[C@H](Cc3ccc(C(=O)O)cc3)NC(=O)[C@H](Cc3ccc(OCC(=O)O)cc3)NC(=O)CSC[C@@H](C(=O)N[C@@H](C)C(N)=O)NC(=O)[C@H]([C@@H](C)O)NC(=O)[C@H](C(C)C)NC(=O)[C@H](CC(C)C)NC(=O)[C@H](CCN)NC(=O)[C@@H](CC(C)C)NC(=O)[C@H](CCCN)NC(=O)[C@H](C(C)C)NC(=O)[C@H](Cc3ccc(-c4ccccc4)cc3)NC(=O)[C@H](C(C)C)NC2=O)c1 [Compound 1221] ({CH2CO}-Y(Carboxymethyl)[Phe(4-COOH)]D[Phe(3-Me)]V[Bip]V[Orn][dL][Dab]LVTCA-NH2; thioether N-14)
